This is an account of results in patent US9890147B2 (BAYER PHARMA AKTIENGESELLSCHAFT, priority 2012, dated 2018).

The assay concerns the target T1, BRD4 (BD1) (Homo sapiens, UniProt O60885).
T1 construct: with relatively long constructs also being possible, preferably amino acids 44-168; made in house; host or cells: E. coli
As to the kind of experiment: Binding assay BRD4/acetylated peptide H4 (TR-FRET protein-protein interaction assay). The text has this: Binding Assay BRD4/Acetylated Peptide H4 (“PRO”)
To assess the BRD4 binding of the substances described in the present application, their ability to inhibit the interaction between BRD4 (BD1) and acetylated histone H4 in a dose-dependent manner was quantified (Filippakopoulos et al., Cell, 2012, 149: 214-231).
For this purpose, use was made of a time-resolved fluorescence resonance energy transfer (TR-FRET) assay which measured binding between N-terminally His6-tagged BRD4 (BD1) (amino acids 67-152, with relatively long constructs also being possible, preferably amino acids 44-168) and a synthetic acetylated histone H4 (Ac—H4) peptide having the sequence GRGK(Ac)GGK(Ac)GLGK(Ac)GGAK(Ac)RHGSGSK-biotin. The recombinant BRD4 protein-produced according to Filippakopoulos et al., Cell, 2012, 149: 214-231—was expressed in E. coli and purified by (Ni-NTA) affinity and (Sephadex G-75) size exclusion chromatography. The Ac—H4 peptide is commercially available, for example from Biosyntan (Berlin, Germany). In a typical assay, 11 different concentrations of each substance (0.1 nM, 0.33 nM, 1.1 nM, 3.8 nM, 13 nM, 44 nM, 0.15 μM, 0.51 μM, 1.7 μM, 5.9 μM and 20 μM) were measured in duplicate on the same microtitre plate. To this end, 100-fold concentrated solutions in DMSO were prepared by serial dilution (1:3.4) of a 2 mM stock solution in a clear 384-well microtitre platte (Greiner Bio-One, Frickenhausen, Germany) 50 nl of these were transferred into a black test plate (Greiner Bio-One, Frickenhausen, Germany). The test was started by addition of 2 μl of a 2.5-fold concentrated BRD4 solution (final concentration usually 10 nM in the […] of the reaction volume) in aqueous assay buffer [50 mM HEPES pH 7.5. 50 mM sodium chloride (NaCl), 0.25 mM CHAPS and 0.05% serum albumin (BSA)] to the substances in the test plate. This was followed by a 10-minute incubation step at 22° C. to pre-equilibrate putative complexes between BRD4 and the substances.
The mixture was then incubated in the dark for one hour at 22° C. and then for at least 3 hours and at most overnight at 4° C. Formation of BRD4/Ac—H4 complexes was determined by measuring the resonance energy transfer from the streptavidin-Eu cryptate to the anti-6His-XL665 antibody in the reaction. To this end, the fluorescence emission was measured at 620 nm and 665 nm after excitation at 330-350 nm in a TR-FRET measuring device, for example a Rubystar or Pherastar (both from BMG Lab Technologies, Offenburg, Germany) or a Viewlux (Perkin-Elmer). The ratio of the emission at 665 nm and at […] was used as an indicator for the amount of BRD4/Ac—H4 complexes formed.
The data obtained (ratios) were normalized, with 0% inhibition corresponding to the mean of the measured values of a set of controls (usually 32 data points) comprising all reagents. Here, 50 nl of DMSO (100%) were used instead of test substances. An inhibition of 100% corresponded to the mean of the measured values of a set of controls (usually 32 data points) comprising all reagents except for BRD4. The IC50 was determined by regression analysis based on a 4-parameter equation (minimum, maximum, IC50, Hill; Y=Max+(Min−Max)/(1+(X/IC 50)^Hill)).
On the technique in general: Time-resolved FRET reads energy transfer from a long-lived donor to a nearby acceptor.
With `CCNC(=O)N1N=C(c2ccc(N3CCN(C)CC3)cc2)c2cc(OC)c(OC)cc2C[C@@H]1C` [Example 261.1, (4S)—N-Ethyl-7,8-dimethoxy-4-methyl-1-[4-(4-methylpiperazin-1-yl)phenyl]-4,5-dihydro-3H-2,3-benzodiazepine-3-carboxamide], the IC50 (commonly the concentration at which inhibition is half-maximal) is 1220 nM. In other words, the single-digit micromolar range.

Compound `CCC1Cc2cc(OC)c(OC)cc2C(c2ccc(N3CCN(C)CC3)cc2)=NN1C(=O)NC` (racemic) [Example 201, (±)-4-ethyl-7,8-dimethoxy-N-methyl-1-[4-(4-methylpiperazin-1-yl)phenyl]-4,5-dihydro-3H-2,3-benzodiazepine-3-carboxamide] gave an IC50 of 1370 nM.

As for `CCC1Cc2cc(OC)c(OC)cc2C(c2ccc(-c3c(C)noc3C)cc2)=NN1C(=O)NC` (racemic) [Example 223, (±)-1-[4-(3,5-dimethyl-1,2-oxazol-4-yl)phenyl]-4-ethyl-7,8-dimethoxy-N-methyl-4,5-dihydro-3H-2,3-benzodiazepine-3-carboxamide], the IC50 was found to be 320 nM.

`CCC1Cc2cc(OC)c(OC)cc2C(c2ccc(N3CCCCC3=O)cc2)=NN1C(=O)NC` (racemic) [Example 227, (±)-4-ethyl-7,8-dimethoxy-N-methyl-1-[4-(2-oxopiperidin-1-yl)phenyl]-4,5-dihydro-3H-2,3-benzodiazepine-3-carboxamide] yielded an IC50 of 6280 nM.

On to `CCC1Cc2cc(OC)c(OC)cc2C(c2ccc(N3CCCC3=O)cc2)=NN1C(=O)NC` (racemic) [Example 225, (±)-4-ethyl-7,8-dimethoxy-N-methyl-1-[4-(2-oxopyrrolidin-1-yl)phenyl]-4,5-dihydro-3H-2,3-benzodiazepine-3-carboxamide], for which the IC50 stood at 1720 nM.

With `CNC(=O)N1N=C(c2ccc(N3CCC(OC)CC3)cc2)c2cc(OC)c(OC)cc2C[C@H]1C` [Example 179.1, (4R)-7,8-dimethoxy-1-[4-(4-methoxypiperidin-1-yl)phenyl]-N,4-dimethyl-4,5-dihydro-3H-2,3-benzodiazepine-3-carboxamide], the IC50 stood at 3770 nM.

`CNC(=O)N1N=C(c2ccc(N3CCN(C(C)=O)CC3)cc2)c2ccc(OC(F)(F)F)cc2CC1C` (racemic) [Example 217, (±)-1-[4-(4-acetylpiperazin-1-yl)phenyl]-N,4-dimethyl-7-(trifluoromethoxy)-4,5-dihydro-3H-2,3-benzodiazepine-3-carboxamide] returned an IC50 of 1730 nM.

The compound `CNC(=O)N1N=C(c2ccc(N3C[C@@H](C)N[C@@H](C)C3)cc2)c2cc(OC)c(OC)cc2C[C@@H]1C` [Example 198, (4S)-1-{4-[(3R,5S)-3,5-dimethylpiperazin-1-yl]phenyl}-7,8-dimethoxy-N,4-dimethyl-4,5-dihydro-3H-2,3-benzodiazepine-3-carboxamide] registered an IC50 of 5300 nM.

With `CNC(=O)N1N=C(c2ccc(N3CCN(C)CC3)cc2)c2cc(O)c(O)cc2CC1C` (racemic) [Example 199, (±)-7,8-Dihydroxy-N,4-dimethyl-1-[4-(4-methylpiperazin-1-yl)phenyl]-4,5-dihydro-3H-2,3-benzodiazepine-3-carboxamide], the IC50 was 1020 nM.

In turn, `CCC1Cc2cc(OC)c(OC)cc2C(c2ccc(N3CC(F)C3)cc2)=NN1C(=O)NC` (racemic) [Example 204, (±)-4-ethyl-1-[4-(3-fluoroazetidin-1-yl)phenyl]-7,8-dimethoxy-N-methyl-4,5-dihydro-3H-2,3-benzodiazepine-3-carboxamide] yielded an IC50 of 1220 nM.

With `CNC(=O)N1N=C(c2ccc(Cl)cc2)c2ccc(N3CCCCC3=O)cc2CC1C` (racemic) [Example 231, (±)-1-(4-chlorophenyl)-N,4-dimethyl-7-(2-oxopiperidin-1-yl)-4,5-dihydro-3H-2,3-benzodiazepine-3-carboxamide], the IC50 worked out at 3370 nM.

In the case of `CNC(=O)N1N=C(c2ccc(N3CCCS3(=O)=O)cc2)c2cc(OC)c(OC)cc2CC1C` (racemic) [Example 244, (±)-1-[4-(1,1-Dioxido-1,2-thiazolidin-2-yl)phenyl]-7,8-dimethoxy-N,4-dimethyl-4,5-dihydro-3H-2,3-benzodiazepine-3-carboxamide], the IC50 was determined as 30 nM.

Consider `CNC(=O)C1CCN(c2ccc(C3=NN(C(=O)NC)[C@H](C)Cc4cc(OC)c(OC)cc43)cc2)CC1` [Example 189.2, (4R)-7,8-dimethoxy-N,4-dimethyl-1-{4-[4-(methylcarbamoyl)piperidin-1-yl]phenyl}-4,5-dihydro-3H-2,3-benzodiazepine-3-carboxamide], for which the IC50 worked out at 17400 nM.

In turn, `CNC(=O)N1N=C(c2ccc(Cl)cc2)c2ccc(-c3ccc(F)cc3)cc2CC1C` (racemic) [Example 239, (±)-1-(4-chlorophenyl)-7-(4-fluorophenyl)-N,4-dimethyl-4,5-dihydro-3H-2,3-benzodiazepine-3-carboxamide] gave an IC50 of 11400 nM.

Compound `COC(=O)N1N=C(c2ccc(N3CCN(C)CC3)cc2)c2cc(OC)c(OC)cc2CC1C` (racemic) [Example 259, Methyl(±)-7,8-dimethoxy-4-methyl-1-[4-(4-methylpiperazin-1-yl)phenyl]-4,5-dihydro-3H-2,3-benzodiazepine-3-carboxylate] yielded an IC50 of 520 nM.

Turning to `CNC(=O)N1N=C(c2ccc(N3CCN(C)C(=O)C3)cc2)c2ccc(N3CCN(C)C(=O)C3)cc2CC1C` (racemic) [Example 238, (±)-N,4-dimethyl-7-(4-methyl-3-oxopiperazin-1-yl)-1-[4-(4-methyl-3-oxopiperazin-1-yl)phenyl]-4,5-dihydro-3H-2,3-benzodiazepine-3-carboxamide], the IC50 worked out at 130 nM.

Turning to `CC[C@@H]1Cc2cc(OC)c(OC)cc2C(c2ccc(N3CCNCC3)cc2)=NN1C(=O)NC` [Example 202.2, (4R)-4-ethyl-7,8-dimethoxy-N-methyl-1-[4-(piperazin-1-yl)phenyl]-4,5-dihydro-3H-2,3-benzodiazepine-3-carboxamide], the IC50 was found to be 6540 nM.

`CNC(=O)N1N=C(c2ccc(-c3c(C)nn(C)c3C)cc2)c2cc(OC(F)(F)F)ccc2C[C@H]1C` [Example 249.2, (4R)-N,4-dimethyl-8-(trifluoromethoxy)-1-[4-(1,3,5-trimethyl-1H-pyrazol-4-yl)phenyl]-4,5-dihydro-3H-2,3-benzodiazepine-3-carboxamide] gave an IC50 of 2340 nM.

As to `COc1cc2c(cc1OC)C(c1ccc(N3CCN(C)CC3)cc1)=NN(C(C)=O)[C@@H](C)C2` (single isomer, unassigned) [Example 245.1], the IC50 was 390 nM.

Turning to `CNC(=O)N1N=C(c2ccc(-c3c(C)nn(C)c3C)cc2)c2cc(OC)c(OC)cc2CC1C(C)C` (racemic) [Example 224, (±)-4-isopropyl-7,8-dimethoxy-N-methyl-1-[4-(1,3,5-trimethyl-1H-pyrazol-4-yl)phenyl]-4,5-dihydro-3H-2,3-benzodiazepine-3-carboxamide], the IC50 turned out to be 7690 nM.

In turn, `CNC(=O)N1N=C(c2ccc(N3CCNCC3)cc2)c2cc(Cl)c(OC(F)(F)F)cc2CC1C` (racemic) [Example 211, (±)-8-chloro-N,4-dimethyl-1-[4-(piperazin-1-yl)phenyl]-7-(trifluoromethoxy)-4,5-dihydro-3H-2,3-benzodiazepine-3-carboxamide] registered an IC50 of 300 nM.

In the case of `CCC1Cc2cc(OC)c(OC)cc2C(c2ccc(N3CCOC3=O)cc2)=NN1C(=O)NC` (racemic) [Example 228, (±)-4-ethyl-7,8-dimethoxy-N-methyl-1-[4-(2-oxo-1,3-oxazolidin-3-yl)phenyl]-4,5-dihydro-3H-2,3-benzodiazepine-3-carboxamide], the IC50 turned out to be 1690 nM. Against the preceding compound, the IC50 is about 5.6-fold higher.

The compound `CNC(=O)N1N=C(c2ccc(-c3cccnc3Cl)cc2)c2cc(OC)c(OC)cc2C[C@@H]1C` [Example 4.2, (S)-1-[4-(2-chloropyridin-3-yl)phenyl]-7,8-dimethoxy-N,4-dimethyl-4,5-dihydro-3H-2,3-benzodiazepine-3-carboxamide] gave an IC50 of 60 nM.
